Laboratory results published in article PMC2995015 (Biochemistry, 2010).
Substitutions are numbered along the chain they refer to.

Experiments:
Assay type in all cases: cell-based
PMAT mutant Y112W [1] = target: T1, PMAT mutant Y112W (Homo sapiens, UniProt Q7RTT9, Y112W); test: Concentration-dependent transport kinetics in stably transfected MDCK cells; settings: for Km / Vmax: Y112W, MDCK cells, 1 min, 37°C
T1 sequence (Q7RTT9 1-530 Y112W): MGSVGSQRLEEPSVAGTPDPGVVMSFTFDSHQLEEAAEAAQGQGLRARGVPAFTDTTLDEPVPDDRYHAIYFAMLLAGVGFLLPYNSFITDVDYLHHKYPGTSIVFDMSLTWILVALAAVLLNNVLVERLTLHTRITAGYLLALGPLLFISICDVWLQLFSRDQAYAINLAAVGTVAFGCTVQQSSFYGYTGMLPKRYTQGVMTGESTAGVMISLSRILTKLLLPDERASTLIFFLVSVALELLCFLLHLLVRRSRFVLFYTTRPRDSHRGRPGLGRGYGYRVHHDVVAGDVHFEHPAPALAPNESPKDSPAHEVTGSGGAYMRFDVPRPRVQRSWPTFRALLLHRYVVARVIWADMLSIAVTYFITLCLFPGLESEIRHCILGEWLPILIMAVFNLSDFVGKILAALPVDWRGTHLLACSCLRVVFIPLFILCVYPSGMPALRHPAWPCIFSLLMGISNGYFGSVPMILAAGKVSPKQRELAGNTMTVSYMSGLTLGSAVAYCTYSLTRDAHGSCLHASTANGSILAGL

PMAT mutant Y85W [2] = target: T2, PMAT mutant Y85W (Homo sapiens, UniProt Q7RTT9, Y85W); test: as above; settings: for Km / Vmax: Y85W, MDCK cells, 1 min, 37°C
T2 sequence (Q7RTT9 1-530 Y85W): T1 sequence (Q7RTT9 1-530 Y112W) with Y85W, W112Y

PMAT wild type = target: T3, PMAT wild type (Homo sapiens, UniProt Q7RTT9); test: as above; settings: 1 min, 37°C
T3 sequence (Q7RTT9 1-530): T1 sequence (Q7RTT9 1-530 Y112W) with W112Y

PMAT mutant Y112W [3] = target: T1, PMAT mutant Y112W; test: Single-concentration 3H-substrate uptake in stably transfected MDCK cells; settings: MPP+ 1 μM, 5-HT 10 μM, dopamine 10 μM, 4 min, 37°C
PMAT mutant Y85W [4] = target: T2, PMAT mutant Y85W; test: as above; settings: MPP+ 1 μM, 5-HT 10 μM, dopamine 10 μM, 4 min, 37°C
PMAT mutant Y85W [5] = target: T2, PMAT mutant Y85W; test: Uridine inhibition of organic cation transport in stably transfected MDCK cells; settings: uridine 1 mM; data not shown
PMAT mutant Y85W [6] = target: T2, PMAT mutant Y85W; test: Uptake of uridine in the presence of NBMPR in stably transfected MDCK cells; settings: 0.5 μM NBMPR, vs vector-transfected cells
WT PMAT = target: T4, WT PMAT (Homo sapiens, UniProt Q7RTT9); test: as above; settings: 0.5 μM NBMPR, vs vector-transfected cells
T4 sequence (Q7RTT9 1-530): T1 sequence (Q7RTT9 1-530 Y112W) with W112Y

PMAT mutant Y112A = target: T5, PMAT mutant Y112A (Homo sapiens, UniProt Q7RTT9, Y112A); test: as above; settings: 0.5 μM NBMPR, vs vector-transfected cells
T5 sequence (Q7RTT9 1-530 Y112A): T1 sequence (Q7RTT9 1-530 Y112W) with W112A

PMAT mutant Y112S = target: T6, PMAT mutant Y112S (Homo sapiens, UniProt Q7RTT9, Y112S); test: as above; settings: 0.5 μM NBMPR, vs vector-transfected cells
T6 sequence (Q7RTT9 1-530 Y112S): T1 sequence (Q7RTT9 1-530 Y112W) with W112S

Km (PMAT mutant Y112W [1]) | Vmax (PMAT mutant Y112W [1]) | Km (PMAT mutant Y85W [2]) | Km (PMAT wild type) | transport efficiencies, % of the WT PMAT (PMAT mutant Y112W [1]; Y112W vs WT PMAT) | inhibitory effect on Y85W-mediated organic cations transport (PMAT mutant Y85W [5]) | Compound | activity retained compared to cells expressing WT PMAT (PMAT mutant Y112W [3]) | Vmax (PMAT mutant Y85W [2]) | Vmax (PMAT wild type) | reduction in Vmax (PMAT mutant Y112W [1]; Y112W vs WT PMAT) | increase in maximal velocity (Vmax) (PMAT mutant Y85W [2]; Y85W vs WT PMAT) | increase in transport efficiency (Vmax/Km) (PMAT mutant Y85W [2]; Y85W vs WT PMAT) | transport activity compared to WT PMAT (PMAT mutant Y85W [4]) | transport activity for uridine (PMAT mutant Y85W [6]) | transport activity for uridine (WT PMAT) | transport activity for uridine (PMAT mutant Y112A) | transport activity for uridine (PMAT mutant Y112S)
104 ± 13.2 µM | 1.04 ± 0.13 nmol/mg protein/min | 308 ± 50.8 µM | 168 ± 18.9 µM | – | – | NCCc1c[nH]c2ccc(O)cc12 [Serotonin, serotonin] | – | – | – | – | – | – | – | – | – | – | –
88 ± 6.8 µM | 1.03 ± 0.09 nmol/mg protein/min | 243 ± 30.4 µM | 244 ± 16.2 µM | 60–70% | – | NCCc1ccc(O)c(O)c1 [Dopamine, dopamine] | 50–60% | 3.87 ± 0.14 nmol/mg protein/min | 4.12 ± 0.35 nmol/mg protein/min | – | – | – | – | – | – | – | –
– | – | – | – | – | no significant inhibitory effect | O=c1ccn([C@@H]2O[C@H](CO)[C@@H](O)[C@H]2O)c(=O)[nH]1 [uridine] | – | – | – | – | – | – | – | no statistically significant transport activity | no statistically significant transport activity | no statistically significant transport activity | no statistically significant transport activity

Compound | Km (PMAT mutant Y112W [1]) | Vmax (PMAT mutant Y112W [1]) | Km (PMAT mutant Y85W [2]) | Km (PMAT wild type) | transport efficiencies, % of the WT PMAT (PMAT mutant Y112W [1]; Y112W vs WT PMAT) | inhibitory effect on Y85W-mediated organic cations transport (PMAT mutant Y85W [5]) | activity retained compared to cells expressing WT PMAT (PMAT mutant Y112W [3]) | Vmax (PMAT mutant Y85W [2]) | Vmax (PMAT wild type) | reduction in Vmax (PMAT mutant Y112W [1]; Y112W vs WT PMAT) | increase in maximal velocity (Vmax) (PMAT mutant Y85W [2]; Y85W vs WT PMAT) | increase in transport efficiency (Vmax/Km) (PMAT mutant Y85W [2]; Y85W vs WT PMAT) | transport activity compared to WT PMAT (PMAT mutant Y85W [4]) | transport activity for uridine (PMAT mutant Y85W [6]) | transport activity for uridine (WT PMAT) | transport activity for uridine (PMAT mutant Y112A) | transport activity for uridine (PMAT mutant Y112S)
C[n+]1ccc(-c2ccccc2)cc1 [MPP^+, 1-methyl-4-phenylpyridinium] | 147 ± 36.3 µM | 0.23 ± 0.02 nmol/mg protein/min | 31.1 ± 6.9 µM | 42.2 ± 5 µM | – | – | less than 20% | 0.94 ± 0.10 nmol/mg protein/min | 0.60 ± 0.04 nmol/mg protein/min | 2.6 fold | 1.6 fold | about 2 fold | significantly higher transport activity | – | – | – | –
